“And” between values parts separate entries of the source, which are not always exact repeats. Equal values may be shown once. Read-outs that look alike come from different tables or passages of the source.
Test: Blood pharmacokinetics after a single intraperitoneal dose
Format: in vivo, male CD1 mice
Conditions: for blood concentrations quantifiable up to: 1 animal out of 3, LLOQ 10.04 ng/mL; for concentration at 0.08 hr / concentration at 0.25 hr / concentration at 0.5 hr / concentration at 1 hr / concentration at 2 hr / concentration at 4 hr / concentration at 8 hr / concentration at 24 hr / AUC(0-inf) / AUC(0-t) / Cmax / Tmax: male, CD1, mouse, in vivo; for concentration at 24 hr: value excluded from data analysis; for AUC(0-inf) / AUC(0-t) / Cmax / Tmax: blood, mean
Description: The objective of this example was to investigate the blood pharmacokinetics of UPHH-123 in male CD1 mice following a single intraperitoneal dose administration. Eighteen male CD1 mice were divided in two groups as, Group 1 and Group 2 comprising nine mice in each group.
Animals in Group 1 were administered intraperitoneally with UPHH-123 solution formulation in 5% NMP, 5% Solutol HS, 30% PEG-400 and 60% normal saline at 10.4 mg/kg dose. Animals in Group 2 were administered intraperitoneally with UPHH-123 solution formulation in 5% NMP, 5% Solutol HS, 30% PEG-400 and 60% normal saline) at 52 mg/kg dose.
Blood samples (approximately 120 μL) were collected at pre-dose, 0.08, 0.25, 0.5, 1, 2, 4, 8 and 24 hr. The blood samples were collected at each time point in a labeled micro centrifuge tube containing K2EDTA as anticoagulant. Immediately aliquot (50 μL) of blood was hemolyzed with equal volume of water (50 μL) and quenched with three volume (150 μL) of acetonitrile (IS containing acetonitrile) and samples were stored below −70° C. until bioanalysis. All samples were processed for analysis by protein precipitation using acetonitrile (ACN) and analyzed with fit for purpose LC/MS/MS method (LLOQ: 10.04 ng/mL for UPHH-123 in blood). Pharmacokinetic parameters were calculated using the non-compartmental analysis tool of Phoenix WinNonlin (Version 7.0). Mean pharmacokinetic parameters are summarized below: […]

blood concentrations quantifiable up to (10.4 mg/kg IP): up to 24 hr
Blood Concentration, individual animal (10.4 mg/kg IP, 0.08 hr): 2082.46 ng/mL and 2293.56 ng/mL
Blood Concentration, individual animal (10.4 mg/kg IP, 0.25 hr): 2572.69 ng/mL and 4414.44 ng/mL
Blood Concentration, individual animal (10.4 mg/kg IP, 0.5 hr): 675.87 ng/mL and 848.67 ng/mL
Blood Concentration, individual animal (10.4 mg/kg IP, 1 hr): 105.72 ng/mL and 180.27 ng/mL
Blood Concentration, individual animal (10.4 mg/kg IP, 8 hr): 26.21 ng/mL and 17.80 ng/mL
Blood Concentration, individual animal (10.4 mg/kg IP, 24 hr, below LLOQ 10.04 ng/mL = zero): 0.00 ng/mL (2×) and 14.58 ng/mL
blood concentrations quantifiable up to (52 mg/kg IP): up to 24 hr
Blood Concentration, individual animal (52 mg/kg IP, 0.08 hr): 7841.88 ng/mL and 4635.35 ng/mL
Blood Concentration, individual animal (52 mg/kg IP, 0.25 hr): 6058.02 ng/mL and 5694.33 ng/mL
Blood Concentration, individual animal (52 mg/kg IP, 0.5 hr): 3520.30 ng/mL and 4708.54 ng/mL
Blood Concentration, individual animal (52 mg/kg IP, 1 hr): 2031.75 ng/mL and 2659.04 ng/mL
Blood Concentration, individual animal (52 mg/kg IP, 8 hr): 167.15 ng/mL and 107.02 ng/mL
Blood Concentration, individual animal (52 mg/kg IP, 24 hr, below LLOQ 10.04 ng/mL = zero): 0.00 ng/mL (2×) and 10.38 ng/mL
dose related increase in plasma exposure (from 10.4 to 52 mg/kg IP): 3.6 fold
concentration at 0.08 hr (10.4 mg/kg, 10.4 mg/kg IP, 0.08 hr, read-out: Blood Concentration, Mean): 1990 ng/mL
concentration at 0.08 hr (10.4 mg/kg, 10.4 mg/kg IP, 0.08 hr, read-out: Blood Concentration, individual animal): 1600 ng/mL
concentration at 0.25 hr (10.4 mg/kg, 10.4 mg/kg IP, 0.25 hr, read-out: Blood Concentration, Mean): 3810 ng/mL
concentration at 0.25 hr (10.4 mg/kg, 10.4 mg/kg IP, 0.25 hr, read-out: Blood Concentration, individual animal): 4440 ng/mL
concentration at 0.5 hr (10.4 mg/kg, 10.4 mg/kg IP, 0.5 hr, read-out: Blood Concentration, Mean): 681 ng/mL
concentration at 0.5 hr (10.4 mg/kg, 10.4 mg/kg IP, 0.5 hr, read-out: Blood Concentration, individual animal): 519 ng/mL
concentration at 1 hr (10.4 mg/kg, 10.4 mg/kg IP, 1 hr, read-out: Blood Concentration, Mean): 148 ng/mL
concentration at 1 hr (10.4 mg/kg, 10.4 mg/kg IP, 1 hr, read-out: Blood Concentration, individual animal): 158 ng/mL
concentration at 2 hr (10.4 mg/kg, 10.4 mg/kg IP, 2 hr): 88 ng/mL
concentration at 4 hr (10.4 mg/kg, 10.4 mg/kg IP, 4 hr): 86.4 ng/mL
concentration at 8 hr (10.4 mg/kg, 10.4 mg/kg IP, 8 hr, read-out: Blood Concentration, Mean): 22.6 ng/mL
concentration at 8 hr (10.4 mg/kg, 10.4 mg/kg IP, 8 hr, read-out: Blood Concentration, individual animal): 23.9 ng/mL
concentration at 24 hr (10.4 mg/kg, 10.4 mg/kg IP, 24 hr): 14.6 ng/mL
concentration at 0.08 hr (52 mg/kg, 52 mg/kg IP, 0.08 hr, read-out: Blood Concentration, Mean): 6160 ng/mL
concentration at 0.08 hr (52 mg/kg, 52 mg/kg IP, 0.08 hr, read-out: Blood Concentration, individual animal): 6000 ng/mL
concentration at 0.25 hr (52 mg/kg, 52 mg/kg IP, 0.25 hr, read-out: Blood Concentration, Mean): 5680 ng/mL
concentration at 0.25 hr (52 mg/kg, 52 mg/kg IP, 0.25 hr, read-out: Blood Concentration, individual animal): 5280 ng/mL
concentration at 0.5 hr (52 mg/kg, 52 mg/kg IP, 0.5 hr, read-out: Blood Concentration, Mean): 3820 ng/mL
concentration at 0.5 hr (52 mg/kg, 52 mg/kg IP, 0.5 hr, read-out: Blood Concentration, individual animal): 3230 ng/mL
concentration at 1 hr (52 mg/kg, 52 mg/kg IP, 1 hr, read-out: Blood Concentration, Mean): 2330 ng/mL
concentration at 1 hr (52 mg/kg, 52 mg/kg IP, 1 hr, read-out: Blood Concentration, individual animal): 2280 ng/mL
concentration at 2 hr (52 mg/kg, 52 mg/kg IP, 2 hr): 360 ng/mL
concentration at 4 hr (52 mg/kg, 52 mg/kg IP, 4 hr): 238 ng/mL
concentration at 8 hr (52 mg/kg, 52 mg/kg IP, 8 hr, read-out: Blood Concentration, Mean): 145 ng/mL
concentration at 8 hr (52 mg/kg, 52 mg/kg IP, 8 hr, read-out: Blood Concentration, individual animal): 160 ng/mL
concentration at 24 hr (52 mg/kg, 52 mg/kg IP, 24 hr): 10.4 ng/mL
AUC(0-inf) (10.4 mg/kg IP): 1950 ng·h/mL
AUC(0-t) (10.4 mg/kg IP): 1850 ng·h/mL
Cmax (10.4 mg/kg IP): 3810 ng/mL
Tmax (10.4 mg/kg IP): 15 min
AUC(0-inf) (52 mg/kg IP): 7640 ng·h/mL
AUC(0-t) (52 mg/kg IP): 6680 ng·h/mL
Cmax (52 mg/kg IP): 6160 ng/mL
Tmax (52 mg/kg IP): 4.8 min
SMILES: COc1ccc(Cn2ccc3ccc(C(=O)NO)cc32)cc1 [UPHH-123]
Blood Concentration, individual animal (10.4 mg/kg IP, 2 hr): 39.90 ng/mL and 98.73 ng/mL and 125.25 ng/mL
Blood Concentration, individual animal (10.4 mg/kg IP, 4 hr): 47.81 ng/mL and 118.38 ng/mL and 92.93 ng/mL
Blood Concentration, individual animal (52 mg/kg IP, 2 hr): 315.76 ng/mL and 238.47 ng/mL and 525.92 ng/mL
Blood Concentration, individual animal (52 mg/kg IP, 4 hr): 442.67 ng/mL and 145.43 ng/mL and 125.55 ng/mL
